{"source": "patent US10023841B2", "about": "“Methods and compositions for treating breast cancer with dendritic cell vaccines” (Baylor Research Institute, priority 2014, dated 2018)", "system": "TAK1", "assay": "Phosphorylated TAK1 (FACS) in monocytes or mDCs", "format": "cell-based, human", "conditions": "monocytes; 10 ng/ml TGF-β1 for 5-90 minutes"}
{"substance": "TGF-β1: soluble TGF-β1 used to treat monocytes", "values": [{"measurement": "phosphorylation of TAK1", "result": "induce phosphorylation of TAK1 as early as 15 minutes"}]}
